Data taken from patent US8343961B2, “Substituted heterocyclic compounds” (ArQule, Inc., priority 2009, dated 2013).

Assays:
Format in all cases: cell-based
DLD-1 = assay: MTS Cellular Assay, DLD-1; details: Homo sapiens, DLD-1, 72 hours
Description: (§1) Cells were maintained at 37° C., 5% CO2 in DMEM media supplemented with 1% fetal bovine serum, penicillin/streptomycin and fungizone (Invitrogen). Cells were seeded into 96-well tissue culture plates at 3000 per well and cultured at 37° C. for 18 hours. Test compounds were dissolved and diluted to 300× in DMSO then further diluted 1:40 in DMEM before addition to cells (1:7.5 dilution). Cells were incubated with test compounds for 72 hours followed by incubation with tetrazolium compound (3-(4,5-dimethylthiazol-2-yl)-5-(3-carboxymethoxyphenyl)-2-(4-sulfophenyl)-2H-tetrazolium, inner salt; MTS) and the electron coupling reagent, phenazine methosulfate (PMS) for 4 hours. […] The ability of compounds to inhibit cell growth in this assay is correlated with the reduction of dehydrogenase enzyme activity found in metabolically active cells. The measurement of the absorbance of the formazan was assessed using an ENVISION™ (Perkin Elmer) microplate reader at 492 nm. The calculated IC50 value is the concentration of the test compound that causes a 50% decrease in the absorbance.

KATO III = assay: MTS Cellular Assay, KATO III; details: Homo sapiens, 72 hours
Description: as §1

MDA-MB-231 = assay: MTS Cellular Assay, MDA-MB-231; details: Homo sapiens, MDA-MB-231, 72 hours
Description: as §1

NCI-H1299 = assay: MTS Cellular Assay, NCI-H1299; details: Homo sapiens, NCI-H1299, 72 hours
Description: as §1

PACA-2 = assay: MTS Cellular Assay, PACA-2; details: PACA-2, 72 hours
Description: as §1

PC-3 = assay: MTS Cellular Assay, PC-3; details: Homo sapiens, PC-3, 72 hours
Description: as §1

SMILES | inhibition at 10 µM (DLD-1) [%] | inhibition at 10 µM (KATO III) [%] | inhibition at 10 µM (MDA-MB-231) [%] | inhibition at 10 µM (NCI-H1299) [%] | inhibition at 10 µM (PACA-2) [%] | inhibition at 10 µM (PC-3) [%]
COc1ccc(OC)c(CN2CCN(c3nc(N)nc4[nH]ncc34)Cc3ccccc32)c1 [Compound 36, 4-[1-(2,5-dimethoxybenzyl)-1,2,3,5-tetrahydro-4H-1,4-benzodiazepin-4-yl]-1H-pyrazolo[3,4-d]pyrimidin-6-amine] | > 79 | > 79 | > 79 | > 79 | > 79 | > 79
Nc1nc(N2CCN(Cc3ccccc3Cl)c3ccccc3C2)c2cn[nH]c2n1 [Compound 14, 4-[1-(2-chlorobenzyl)-1,2,3,5-tetrahydro-4H-1,4-benzodiazepin-4-yl]-1H-pyrazolo[3,4-d]pyrimidin-6-amine] | > 79 | > 79 | > 79 | 50 to 79 | < 50 | > 79
COc1ccc(CN2CCN(c3nc(N)nc4[nH]ncc34)Cc3ccccc32)cc1OC [Compound 28, 4-[1-(3,4-dimethoxybenzyl)-1,2,3,5-tetrahydro-4H-1,4-benzodiazepin-4-yl]-1H-pyrazolo[3,4-d]pyrimidin-6-amine] | > 79 | > 79 | > 79 | > 79 | > 79 | > 79
CC(C)(C)c1ccc(CN2CCN(c3nc(N)nc4[nH]cnc34)Cc3ccccc32)cc1 [Compound 29, 6-[1-(4-tert-butylbenzyl)-1,2,3,5-tetrahydro-4H-1,4-benzodiazepin-4-yl]-9H-purin-2-amine] | < 50 | < 50 | < 50 | < 50 | < 50 | < 50
Nc1nc(N2CCN(Cc3ccc(Cl)cc3Cl)c3ccccc3C2)c2cn[nH]c2n1 [Compound 32, 4-[1-(2,4-dichlorobenzyl)-1,2,3,5-tetrahydro-4H-1,4-benzodiazepin-4-yl]-1H-pyrazolo[3,4-d]pyrimidin-6-amine] | > 79 | 50 to 79 | < 50 | > 79 | < 50 | < 50
Nc1nc(N2CCN(CCCc3cccc(Cl)c3)c3ccccc3C2)c2cn[nH]c2n1 [Compound 8, 4-{1-[3-(3-chlorophenyl)propyl]-1,2,3,5-tetrahydro-4H-1,4-benzodiazepin-4-yl}-1H-pyrazolo[3,4-d]pyrimidin-6-amine] | > 79 | < 50 | < 50 | 50 to 79 | < 50 | < 50
Nc1nc(N2CCN(Cc3cccc(C(F)(F)F)c3)c3ccccc3C2)c2cn[nH]c2n1 [Compound 21, 4-{1-[3-(trifluoromethyl)benzyl]-1,2,3,5-tetrahydro-4H-1,4-benzodiazepin-4-yl}-1H-pyrazolo[3,4-d]pyrimidin-6-amine] | > 79 | > 79 | > 79 | < 50 | < 50 | > 79
Nc1nc(N2CCN(CCCc3cccc(F)c3)c3ccccc3C2)c2nc[nH]c2n1 [Compound 39, 6-{1-[3-(3-fluorophenyl)propyl]-1,2,3,5-tetrahydro-4H-1,4-benzodiazepin-4-yl}-9H-purin-2-amine] | > 79 | > 79 | > 79 | > 79 | > 79 | > 79
Nc1nc(N2CCN(Cc3ccc(Cl)cc3)c3ccccc3C2)c2cn[nH]c2n1 [Compound 23, 4-[1-(4-chlorobenzyl)-1,2,3,5-tetrahydro-4H-1,4-benzodiazepin-4-yl]-1H-pyrazolo[3,4-d]pyrimidin-6-amine] | > 79 | < 50 | 50 to 79 | > 79 | < 50 | < 50
CC(C)(C)c1ccc(CN2CCN(c3nc(N)nc4[nH]ncc34)Cc3ccccc32)cc1 [Compound 30, 4-[1-(4-tert-butylbenzyl)-1,2,3,5-tetrahydro-4H-1,4-benzodiazepin-4-yl]-1H-pyrazolo[3,4-d]pyrimidin-6-amine] | > 79 | < 50 | < 50 | 50 to 79 | < 50 | < 50
Nc1nc(N2CCN(Cc3ccc(Cl)c(Cl)c3)c3ccccc3C2)c2cn[nH]c2n1 [Compound 43, 4-[1-(3,4-dichlorobenzyl)-1,2,3,5-tetrahydro-4H-1,4-benzodiazepin-4-yl]-1H-pyrazolo[3,4-d]pyrimidin-6-amine] | > 79 | < 50 | < 50 | 50 to 79 | < 50 | < 50
